Results taken from patent publication US20100004253A1, “BIOMARKERS OF TARGET MODULATION, EFFICACY, DIAGNOSIS AND/OR PROGNOSIS FOR RAF INHIBITORS” (Novartis AG, priority 2006, published 2010).

Experiments:
SW620 = conditions: SW620, K-Ras cell line
SKMEL28 = conditions: SKMEL28, mutant B-Raf cell line
MALME-3M = conditions: mutant B-Raf cell line
HT29 xenograft = experiment: Mutant B-Raf xenograft model; assay type: in vivo
SKMEL2 = conditions: SKMEL2, N-Ras cell line
A375M xenograft = experiment: Mutant B-Raf xenograft model; assay type: in vivo
[1] = test system: MEK target phosphorylation and signaling molecules downstream from Raf (BIM, Cyclin D1, p27Kip, pAKT); conditions: preclinical models
SKMEL31 = conditions: SKMEL31, mutant B-Raf cell line
[2] = test system: A375M melanoma xenograft tumors; experiment: mRNA microarray profiling of A375M xenograft tumors; assay type: in vivo, mice; conditions: 100 mg/kg orally every other day; 783 probesets; Table IX
G361 = conditions: G361, mutant B-Raf cell line
A2058 = conditions: A2058, mutant B-Raf cell line
MEXF276 xenograft = experiment: Mutant B-Raf xenograft model; assay type: in vivo
HCT116 xenograft = experiment: K-Ras driven xenograft model; assay type: in vivo
Description: […]. […] […].

COLO205 = conditions: COLO205, mutant B-Raf cell line

Cn1c(Nc2ccc(C(F)(F)F)cc2)nc2cc(Oc3ccnc(-c4ncc(C(F)(F)F)[nH]4)c3)ccc21 [CHIR-265, {1-Methyl-5-[2-(5-trifluoromethyl-1H-imidazol-2-yl)-pyridin-4-yloxy]-1H benzoimidazol-2-yl}-(4-trifluoromethyl-phenyl)-amine]
inhibition of the Raf pathway (SW620): inhibition of the Raf pathway
inhibition of the Raf pathway (SKMEL28): inhibition of the Raf pathway
inhibition of the Raf pathway (MALME-3M): inhibition of the Raf pathway
effect on tumor (HT29 xenograft): tumor regression
inhibition of the Raf pathway (SKMEL2): inhibition of the Raf pathway
effect on tumor (A375M xenograft): tumor regression
inhibition of MEK target phosphorylation and signaling molecules downstream from Raf in the MAPK pathway [1]: dose and time dependent inhibition
inhibition of the Raf pathway (SKMEL31): inhibition of the Raf pathway
number of genes significantly differential, alternate analysis method (six queries, p<0.005) [2]: 609 genes
inhibition of the Raf pathway (G361): inhibition of the Raf pathway
inhibition of the Raf pathway (A2058): inhibition of the Raf pathway
effect on tumor (MEXF276 xenograft): tumor regression
effect on tumor (HCT116 xenograft): tumor growth inhibition
inhibition of the Raf pathway (COLO205): inhibition of the Raf pathway
